Literature values as cited in patent US9242010B2, “Living copolymer-protein/peptide hybrids for biomedical applications” (Research Foundation of The City University of New York, priority 2008, dated 2016).

What was measured:
avidin/streptavidin = conditions: interaction of avidin/streptavidin with biotin
[1] = background statement

In the case of `O=C(O)CCCC[C@@H]1SC[C@@H]2NC(=O)N[C@@H]21` [biotin], the Ka (avidin/streptavidin) is listed as > 10^14.

In the case of `COc1cc(/C=C/C(=O)CC(=O)/C=C/c2ccc(O)c(OC)c2)ccc1O` [curcumin, (1E,6E)-1,7-bis(4-hydroxy-3-methoxyphenyl)hepta-1,6-diene 3,5-dione], the “water and plasma solubility” value [1] is given as “poor”.

For `CC(=O)O[C@H]1C(=O)[C@@]2(C)[C@H]([C@H](OC(=O)c3ccccc3)[C@]3(O)C[C@H](OC(=O)[C@H](O)[C@@H](NC(=O)c4ccccc4)c4ccccc4)C(C)=C1C3(C)C)[C@]1(OC(C)=O)CO[C@@H]1C[C@@H]2O` [taxol], the water solubility [1] is given as “not water soluble”.
